# Experimental data as given in patent US5672582A, “Thrombin inhibitors” (Merck & Co., Inc., priority 1994, dated 1997).
# Where two headings read alike, the source gives them in different places.
# Assays:
# human α-thrombin = human α-thrombin (Homo sapiens, UniProt P00734); assay: Proteinase inhibition assay, human α-thrombin; type: biochemical; conditions: for Ratio: Ki trypsin / Ki thrombin
# Description: (§1) Assays of human α-thrombin and bovine trypsin were performed at 25° C. in 0.05M TRIS buffer pH 7.4, 0.15M NaCl, 0.1% PEG. Trypsin assays also contained 1 mM CaCl2.
# "Sar" is the three letter abbreviation for the amino acid sarcosine (N-methylglycine). p-Nitroanilide substrate concentration was determined from measurements of absorbance at 342 nm using an extinction coefficient of 8270 cm^-1 M^-1.
# Concentrations of stock solutions of Z-GPR-afc were determined from measurements of absorbance at 380 nm (extinction coefficient=12600 cm^-1 M^-1) of the 7-amino-4-trifluoromethyl coumarin produced upon complete hydrolysis of an aliquot of the stock solution by thrombin.
# (§2) Times required to achieve equilibration between enzyme and inhibitor were determined in control experiments. Initial velocities of product formation in the absence (Vo) or presence of inhibitor (Vi) were measured. Assuming competitive inhibition, and that unity is negligible compared Km /[S], [S]/e, and [I]/e (where [S], [I], and e respectively represent the total concentrations, of substrate, inhibitor and enzyme), the equilibrium constant (Ki) for dissociation of the inhibitor from the enzyme can be obtained from the dependence of Vo /Vi on [I] shown in equation 1.
# The constants were determined at pH 7.4 in buffer containing 0.05M Tris, 0.15M NaCl, 0.1% PEG-8000 at room temperature.
# [1] = target: activated protein C (APC) (Homo sapiens, UniProt P04070); assay: Chromogenic assay, activated protein C; type: biochemical; conditions: Table 3
# Chain of activated protein C (APC) (P04070 212-461 limits assumed): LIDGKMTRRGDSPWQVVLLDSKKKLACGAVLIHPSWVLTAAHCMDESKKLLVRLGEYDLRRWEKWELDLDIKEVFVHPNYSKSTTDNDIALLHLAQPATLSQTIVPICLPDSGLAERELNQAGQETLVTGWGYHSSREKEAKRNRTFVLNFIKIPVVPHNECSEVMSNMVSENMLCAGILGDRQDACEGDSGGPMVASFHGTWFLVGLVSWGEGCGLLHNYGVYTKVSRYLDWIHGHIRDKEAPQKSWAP
# Chain of activated protein C (APC) (P04070 43-197 limits assumed): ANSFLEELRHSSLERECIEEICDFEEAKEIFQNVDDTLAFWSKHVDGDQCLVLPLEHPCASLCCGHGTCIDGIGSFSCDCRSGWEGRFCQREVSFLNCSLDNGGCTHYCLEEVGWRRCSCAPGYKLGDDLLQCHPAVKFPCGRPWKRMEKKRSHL
# plasmin (Pl) = plasmin (Pl) (Homo sapiens, UniProt P00747); assay: Chromogenic assay, plasmin; type: biochemical; conditions: Table 3
# Chain of plasmin (Pl) (P00747 581-810 limits assumed, species assumed): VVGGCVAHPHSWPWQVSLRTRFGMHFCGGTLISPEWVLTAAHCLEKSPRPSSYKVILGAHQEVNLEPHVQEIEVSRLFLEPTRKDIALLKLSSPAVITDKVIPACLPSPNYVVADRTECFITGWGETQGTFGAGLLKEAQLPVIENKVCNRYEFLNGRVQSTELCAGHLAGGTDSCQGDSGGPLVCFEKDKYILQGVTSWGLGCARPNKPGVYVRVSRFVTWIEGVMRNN
# Chain of plasmin (Pl) (P00747 97-580 limits assumed, species assumed): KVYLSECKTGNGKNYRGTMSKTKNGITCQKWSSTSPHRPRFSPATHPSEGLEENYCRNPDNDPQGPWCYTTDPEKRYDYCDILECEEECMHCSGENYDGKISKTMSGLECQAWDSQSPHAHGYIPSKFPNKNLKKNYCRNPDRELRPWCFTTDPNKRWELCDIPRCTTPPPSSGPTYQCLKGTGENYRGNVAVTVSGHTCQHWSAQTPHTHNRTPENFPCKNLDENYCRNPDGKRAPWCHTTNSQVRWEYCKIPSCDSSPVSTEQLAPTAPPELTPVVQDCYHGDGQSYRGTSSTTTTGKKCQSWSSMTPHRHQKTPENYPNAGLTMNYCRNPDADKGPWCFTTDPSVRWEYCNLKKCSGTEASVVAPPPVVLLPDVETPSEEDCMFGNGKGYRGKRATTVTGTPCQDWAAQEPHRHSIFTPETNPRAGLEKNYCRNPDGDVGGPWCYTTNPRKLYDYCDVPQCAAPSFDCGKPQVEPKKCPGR
# [2] = target: tissue plasminogen activator (t-PA) (Homo sapiens, UniProt P00750); assay: Chromogenic assay, tissue plasminogen activator; type: biochemical; conditions: Table 3, read-out: Ki (nM) tPA
# Chain of tissue plasminogen activator (t-PA) (P00750 36-562, species assumed): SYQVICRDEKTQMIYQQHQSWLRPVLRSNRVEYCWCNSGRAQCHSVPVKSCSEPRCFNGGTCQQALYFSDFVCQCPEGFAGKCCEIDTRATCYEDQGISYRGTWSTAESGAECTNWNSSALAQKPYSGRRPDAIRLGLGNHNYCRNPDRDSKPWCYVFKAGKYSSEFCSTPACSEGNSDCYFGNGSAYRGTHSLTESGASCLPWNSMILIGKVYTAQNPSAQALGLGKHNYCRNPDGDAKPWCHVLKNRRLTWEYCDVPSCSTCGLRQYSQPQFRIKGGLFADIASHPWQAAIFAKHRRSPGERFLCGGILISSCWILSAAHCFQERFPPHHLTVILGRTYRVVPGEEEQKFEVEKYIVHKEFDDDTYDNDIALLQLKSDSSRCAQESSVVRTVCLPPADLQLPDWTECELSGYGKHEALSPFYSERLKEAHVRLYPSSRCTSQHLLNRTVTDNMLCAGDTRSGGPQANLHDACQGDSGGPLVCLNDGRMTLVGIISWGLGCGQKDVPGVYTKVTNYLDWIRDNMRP
# Factor Xa (fXa) = target: T1, Factor Xa (fXa) (Homo sapiens, UniProt P00742); assay: Chromogenic assay, Factor Xa; type: biochemical; conditions: Table 3
# T1 construct: Factor Xa (fXa), plasma kallikrein (p-Kal), plasmin (Pl)
# T1 sequence (P00742 235-488 limits assumed): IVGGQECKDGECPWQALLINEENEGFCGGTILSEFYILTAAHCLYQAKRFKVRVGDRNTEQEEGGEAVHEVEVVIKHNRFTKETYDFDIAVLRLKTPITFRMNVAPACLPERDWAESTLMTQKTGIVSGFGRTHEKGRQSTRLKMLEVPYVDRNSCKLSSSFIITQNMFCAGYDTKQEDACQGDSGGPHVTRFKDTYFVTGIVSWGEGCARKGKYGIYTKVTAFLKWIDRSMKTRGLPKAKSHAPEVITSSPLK
# T1 sequence (P00742 41-179 limits assumed): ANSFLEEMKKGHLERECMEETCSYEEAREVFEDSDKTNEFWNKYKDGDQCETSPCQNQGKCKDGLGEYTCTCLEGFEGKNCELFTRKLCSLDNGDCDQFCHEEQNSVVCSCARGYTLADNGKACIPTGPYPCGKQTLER
# [3] = target: T2, plasma kallikrein (p-Kal) (Homo sapiens, UniProt P03952); assay: Chromogenic assay, plasma kallikrein; type: biochemical; conditions: Table 3
# T2 construct: plasma kallikrein (p-Kal)
# T2 sequence (P03952 391-638 limits assumed, species assumed): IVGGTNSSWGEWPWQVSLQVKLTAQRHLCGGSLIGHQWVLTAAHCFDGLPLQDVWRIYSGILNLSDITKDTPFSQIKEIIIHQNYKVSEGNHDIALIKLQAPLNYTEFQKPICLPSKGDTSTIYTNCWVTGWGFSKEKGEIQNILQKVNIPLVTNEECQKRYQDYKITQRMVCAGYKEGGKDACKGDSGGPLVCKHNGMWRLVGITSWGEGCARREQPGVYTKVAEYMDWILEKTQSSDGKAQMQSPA
# T2 sequence (P03952 20-390 limits assumed, species assumed): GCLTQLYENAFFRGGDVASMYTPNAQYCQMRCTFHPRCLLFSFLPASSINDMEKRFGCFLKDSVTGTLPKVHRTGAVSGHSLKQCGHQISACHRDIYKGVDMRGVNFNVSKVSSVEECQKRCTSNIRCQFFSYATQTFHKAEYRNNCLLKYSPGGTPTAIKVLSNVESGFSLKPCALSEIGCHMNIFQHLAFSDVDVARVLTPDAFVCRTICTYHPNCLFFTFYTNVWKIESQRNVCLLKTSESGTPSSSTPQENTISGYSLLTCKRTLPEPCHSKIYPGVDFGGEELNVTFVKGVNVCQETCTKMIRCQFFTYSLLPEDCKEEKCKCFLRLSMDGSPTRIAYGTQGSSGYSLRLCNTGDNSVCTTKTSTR
# bovine trypsin = target: T3, bovine trypsin (Bos taurus, UniProt P00760); assay: Proteinase inhibition assay, bovine trypsin; type: biochemical
# T3 sequence (P00760 24-246): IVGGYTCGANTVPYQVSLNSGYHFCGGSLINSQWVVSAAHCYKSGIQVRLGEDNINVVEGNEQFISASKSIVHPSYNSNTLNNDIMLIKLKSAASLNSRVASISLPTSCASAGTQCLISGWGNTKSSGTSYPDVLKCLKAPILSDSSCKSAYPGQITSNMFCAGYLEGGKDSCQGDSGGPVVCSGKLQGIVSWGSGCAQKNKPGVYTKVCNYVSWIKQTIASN
# Description: as §1
# In assays wherein rates of hydrolysis of a p-nitroanilide (pna) substrate were determined, a Thermomax 96-well plate reader was used was used to measure (at 405 nm) the time dependent appearance of p-nitroaniline. sar-PR-pna was used to assay human α-thrombin (Km =125 μM) and bovine trypsin (Km =125 μM). "Sar" is the three letter abbreviation for the amino acid sarcosine (N-methylglycine). p-Nitroanilide substrate concentration was determined from measurements of absorbance at 342 nm using an extinction coefficient of 8270 cm^-1 M^-1.
# as §2
# Using the assays described above, the following additional embodiments of the invention were evaluated and shown to be selective for inhibiting thrombin. The constants were determined at pH 7.4 in buffer containing 0.05M Tris, 0.15M NaCl, 0.1% PEG-8000 at room temperature.
# [4] = tested on: FeCl3 induced arterial thrombosis in rats; assay: Rat ferric chloride assay; type: in vivo
# Description: In the assay, male Sprague-Dawley rats (body weights 200-350 grams) were anesthetized with dial-urethane solution (0.1 ml/100 gm body weight i.p.), and a lateral tail vein was cannulated with a 23 gauge needle connected to a 12 inch length of PE50 robing. The robing was attached to a 3-way valve by a tubing adapter. Saline (control) or test compound, as appropriate, was administered via the tail vein catheter. A tracheostomy was performed with a 0.75 inch length of PE205 tubing. The right carotid artery was exposed and a 1.3 mm diameter Doppler flow probe was placed on the vessel. Body temperature was maintained at 37° C. using a heat lamp.
# Rats (8-10/group) were randomized to continuous intravenous infusions of saline or test compound administered via the tail vein at a rate of 0.028 ml/min. Treatment infusions were initiated 60 min before the placement of a 3 mm square piece of Whatman No. 1 filter paper saturated with 35% FeCl3 onto the exposed carotid artery distal to the flow probe. […] Time to occlusion was defined as the time from application of FeCl3 to thrombotic occlusion of the vessel.
# [5] = Oral bioavailability in rhesus monkeys; type: in vivo, rhesus monkey; conditions: oral (nasogastric tube), plasma
# Description: (§3) Concentration was determined in animal plasma after oral (gastric lavage) administration.
# In monkeys, the test agent was administered intravenously as a bolus or orally by pediatric nasogastric tube. For intravenous studies, the sterile agent was dissolved in sterile 0.9% saline and administered via 21 g butterfly, usually via the brachial vein. For oral studies, the sterile agent was dissolved in sterile water and administered via a nasogastric tube. Blood samples (4 cc each) were collected with a plastic syringe containing 3.8% sodium citrate via venipuncture (at sites other than that of drug administration) for drug plasma levels and thrombin clotting time assay. The monkeys were given water ad lib. Monkeys were allowed to recover 14 days before being used again in a similar protocol.
# (§4) Thrombin inhibitor concentrations in plasma were determined by the inactivation of a known amount of thrombin (where [thrombin]>>Ki of inhibitor) from an aliquot of acid-neutralized rat plasma. 0.25 ml of rat platelet poor plasma was mixed with 25 μl of 3M perchloric acid. The sample was centrifuged (14,000×g for 10 minutes) and 0.2 ml of the supernatant was neutralized with 0.43 ml of 1M TrisB 0.15M NaCl/0.1% PEG 8000 pH 7.8. 50-100 μl of acid-neutralized rat plasma was mixed with 50-100 μl of 0.03-3 μM thrombin. […]
# [6] = Oral bioavailability in dogs; type: in vivo; conditions: dog, oral (gastric lavage), plasma
# Description: as §3
# In dogs, the test agent was administered intravenously as a bolus or orally by gastric lavage. For intravenous studies, the sterile agent is dissolved in sterile 0.9% saline and administered via 19 g butterfly, usually via the saphenous vein. For oral studies, the sterile agent was dissolved in sterile water and administered via a feeding tube. Blood samples (5 cc each) were collected with a plastic syringe containing 3.8% sodium citrate via venipuncture (at sites other than that of drug administration) for drug plasma levels and thrombin clotting time assay. Dogs were allowed to recover 14 days before being used again in a similar protocol.
# as §4, with “thrombin. After equilibration, 5-10 μl of 5 mM Sar-Pro-Arg-pna (for <0.1 μM thrombin) or Spectrozyme PCa (for >0.1 μM thrombin) was added.” for “thrombin.”
# [7] = Oral bioavailability in rats; type: in vivo; conditions: rat, oral (gastric lavage), plasma
# Description: as §3
# Rats were anesthetized and instrumented with indwelling left jugular vein and left carotid artery catheters for test agent administration and for serial blood sampling, respectively. One day after instrumentation, blood samples were obtained before saline or inhibitor administration and at increasing time points after the oral administration.
# Thrombin inhibitor concentrations in plasma were determined by the inactivation of a known amount of thrombin (where [thrombin]>>Ki of inhibitor) from an aliquot of acid-neutralized rat plasma. 0.25 ml of rat platelet poor plasma was mixed with 25 μl of 3M perchloric acid. The sample was centrifuged (14,000×g for 10 minutes) and 0.2 ml of the supernatant was neutralized with 0.43 ml of 1M TrisB 0.15M NaCl/0.1% PEG 8000 pH 7.8. 50-100 μl of acid-neutralized rat plasma was mixed with 50-100 μl of 0.03-3 μM thrombin. After equilibration, 5-10 μl of 5 mM Sar-Pro-Arg-pna (for <0.1 μM thrombin) or Spectrozyme PCa (for >0.1 μM thrombin) was added. The observed inhibited velocity was compared to inhibited velocities from a standard curve generated from rat plasma containing known amounts of inhibitor treated in an identical manner. The table below summarizes the results from these studies.
# [8] = Table 2, pH 7.4, 0.05M Tris, 0.15M NaCl, 0.1% PEG-8000, room temperature, read-out: Ki (nM) Thrombin
# [9] = Table 2, pH 7.4, 0.05M Tris, 0.15M NaCl, 0.1% PEG-8000, room temperature, read-out: Ki (nM) Trypsin
# [10] = Table 1, 25° C., 0.05M TRIS pH 7.4, 0.15M NaCl, 0.1% PEG, read-out: Ki (μM) Thrombin
# [11] = Table 1, 25° C., 0.05M TRIS pH 7.4, 0.15M NaCl, 0.1% PEG, 1 mM CaCl2, read-out: Ki (μM) Trypsin
Ki (human α-thrombin; [8]),Ki [1],Ki (plasmin (Pl)),Ki [2],Ki (Factor Xa (fXa)),Ki [3],Ki (bovine trypsin; [9]),SMILES,also measured
4 nM,> 10000 nM,> 10000 nM,> 10000 nM,> 10000 nM,> 10000 nM,> 10000 nM,CNC(=O)C(=O)C(NC(=O)C1CCCN1C(=O)CCc1ccccc1)C1CCC(N)CC1 (mixture of isomers) [ix],–
0.03 nM,> 10000 nM,> 10000 nM,> 10000 nM,> 10000 nM,> 10000 nM,2000 nM,CNC(=O)C(=O)C(NC(=O)C1CCCN1C(=O)CC(c1ccccc1)c1ccccc1)C1CCC(N)CC1 (mixture of isomers) [xv],–
0.6 nM,> 10000 nM,> 10000 nM,> 10000 nM,> 10000 nM,> 10000 nM,120 nM,CNC(Cc1ccccc1)C(=O)N1CCCC1C(=O)NC(C(=O)C(=O)NCc1ccccc1)C1CCC(N)CC1 (mixture of isomers) [xvi],–
0.07 nM,> 10000 nM,> 10000 nM,> 10000 nM,> 10000 nM,9000 nM,120 nM,CNC(Cc1ccccc1)C(=O)N1CCCC1C(=O)NC(C(=O)C(=O)NC1CC1)C1CCC(N)CC1 (mixture of isomers) [xvii],–
0.04 nM,> 10000 nM,> 10000 nM,> 10000 nM,> 10000 nM,> 10000 nM,760 nM,CNC(Cc1ccccc1)C(=O)N1CCCC1C(=O)NC(C(=O)C(=O)N1CCC1)C1CCC(N)CC1 (mixture of isomers) [xviii],–
–,> 10000 nM,> 10000 nM,> 10000 nM,> 10000 nM,7000 nM,–,"CNC(Cc1ccccc1)C(=O)N1CCCC1C(=O)NC(C(=O)C(=O)O)C1CCC(N)CC1 (racemic) [3-3, H-NMe-D-Phe-Pro-t-DL-AcgY[COCO]--OH]",Ki (human α-thrombin; [10]): 0.05 nM; Ratio (human α-thrombin; Table 1): 1000; Incidence of occlusion ([4]; 10 μg/kg/min i.v. infusion): 3/4; Minutes to occulsion of those occluding ([4]; 10 μg/kg/min i.v. infusion): 22 to 24 min; Incidence of occlusion ([4]; 20 μg/kg/min i.v. infusion): 0/4; Incidence of occlusion ([4]; 50 μg/kg/min i.v. infusion): 0/4; Ki (bovine trypsin; [11]): 51 nM
–,–,–,–,–,–,–,"CNC(=O)C(=O)C(NC(=O)C1CCCN1C(=O)C(Cc1ccccc1)NC)C1CCC(N)CC1 [4-3, H-NMe-D-Phe-Pro-t-D-Acg.PSI.[COCO]--NHMe]","Ki (bovine trypsin; Table 1, 25° C., 0.05M TRIS pH 7.4, 0.15M NaCl, 0.1% PEG, 1 mM CaCl2, listed as drawing 21, read-out: Ki (μM) Trypsin): 7000 nM"
–,–,–,–,–,–,–,CNC(=O)C(=O)C(CC1CCC(N)CC1)NC(=O)C1CCCN1C(=O)C(Cc1ccccc1)NC (stereo not shown) [vi],Ki (human α-thrombin; [10]): 52 nM; Ratio (human α-thrombin; Table 1): 28; Ki (bovine trypsin; [11]): 1440 nM
0.07 nM,> 10000 nM,6000 nM,> 10000 nM,3000 nM,> 10000 nM,310 nM,CNC(=O)C(=O)C(NC(=O)C1CCCN1C(=O)C(CC1CCCCC1)NC)C1CCC(N)CC1 (stereo not shown) [x],–
0.4 nM,> 10000 nM,> 10000 nM,> 10000 nM,> 10000 nM,> 10000 nM,> 10000 nM,CNC(=O)C(=O)C(NC(=O)C1CCCN1C(=O)CCc1ccc(Cl)c(Cl)c1)C1CCC(N)CC1 (stereo not shown) [xi],–
0.025 nM,> 10000 nM,> 10000 nM,> 10000 nM,2300 nM,> 10000 nM,660 nM,CNC(=O)C(=O)C(NC(=O)C1CCCN1C(=O)C(Cc1ccc(Cl)c(Cl)c1)NC)C1CCC(N)CC1 (stereo not shown) [xii],–
2.2 nM,> 10000 nM,> 10000 nM,> 10000 nM,> 10000 nM,> 10000 nM,4000 nM,CNC(=O)C(=O)C(NC(=O)C1CCCN1C(=O)CCC1CCCCC1)C1CCC(N)CC1 (stereo not shown) [xiii],–
0.09 nM,> 10000 nM,> 10000 nM,> 10000 nM,9000 nM,> 10000 nM,2100 nM,CNC(=O)C(=O)C(NC(=O)C1CCCN1C(=O)C(Cc1ccc2ccccc2c1)NC)C1CCC(N)CC1 (stereo not shown) [xiv],–

SMILES,Ki (human α-thrombin; [8]),Ki [1],Ki (plasmin (Pl)),Ki [2],Ki (Factor Xa (fXa)),Ki [3],Ki (bovine trypsin; [9]),also measured
"CNC(=O)C(=O)C(NC(=O)C1CCCN1C(=O)C(Cc1ccccc1)NC)C1CCC(N)CC1 [4-4, H-NMe-D.-Phe-Pro-t-L-Acg.PSI.[COCO]--NHMe]",–,> 10000 nM,> 10000 nM,> 10000 nM,> 10000 nM,> 10000 nM,–,"% bioavailable [5]: 5%; Incidence of occlusion ([4]; 1 μg/kg/min i.v. infusion): 3/4; Minutes to occulsion of those occluding ([4]; 1 μg/kg/min i.v. infusion): 21 min; Incidence of occlusion ([4]; 5 μg/kg/min i.v. infusion): 2/4; Minutes to occulsion of those occluding ([4]; 5 μg/kg/min i.v. infusion): 18 to 20 min; Incidence of occlusion ([4]; 10 μg/kg/min i.v. infusion): 0/4; % bioavailable [6]: 8%; % bioavailable [7]: 5%; Ki (bovine trypsin; Table 1, 25° C., 0.05M TRIS pH 7.4, 0.15M NaCl, 0.1% PEG, 1 mM CaCl2, listed as drawing 22, read-out: Ki (μM) Trypsin): 1150 nM"
